Reference: patent US20240360186A1, “Treatment Of Integrin-Related Disorders With Stapled Peptides” (Institute For Cancer Research d/b/a The Research Institute …, priority 2021, published 2024)
Bridge positions count the residues as written; N and C are the ends. Square brackets hold non-standard residues; d marks the D form. Ends that are not written are not given here. Peptide text beside a SMILES is read from it. S5 = C=CCCC[C@](C)(N)C(=O)O

Key:
[1] = system: HeLa cells; assay: Cell toxicity assay, HeLa; assay type: cell-based; settings: 40 μM, treated one hour then washed away, viability at 24 and 48 hours
Experimental: (§1) The cell toxicity of the peptides was then examined. HEK, MCF-7, and HeLa were used. Cells were treated with S-TBS 40 μm for one hour. The S-TBS was then washed away and the viability measured at 24 and 48 hours. No impact on HEK, MCF-7, and HeLa cell growth was observed.

[2] = system: CHO-A5 cells; assay: Cell permeability assay (flow cytometry uptake of fluorophore-labelled peptide); assay type: in vitro ADME; settings: CHO-A5 cells, lower doses, flow cytometry permeability index, fluorophore-labelled peptides
Experimental: Assessing membrane permeability: CHO-A5 cells were treated with FAM-labelled WT-TBS (1, 10, and 50 μM), or with FITC-labelled stapled-TBS (1, 10, and 50 μM), and incubated for 30 minutes at 37° C. The cells were washed twice with phosphate-buffered saline (PBS), harvested in trypsin-EDTA, and centrifuged at 2,000 rpm for 5 minutes. The cells were resuspended in PBS and quantified with an LSR flow cytometer using 30,000 cells per measurement.
A common challenge for peptidomimetic drugs that target intracellular proteins is the poor cell membrane permeability. To assess the effect of the C8 staple on cell permeability, FITC-labeled S-TBS were incubated with CHO cells at various concentration and examined S-TBS uptake by flow cytometry. […] The assay was then performed using lower doses of peptides and quantified the signals for statistical analyses. […] In contrast, TBS requires a concentration of at least 5 μM for cell uptake (FIG. 3, Panel B).
Cell permeability assay: CHO-A5 cells were plated in 6-well dishes, and then treated with fluorophore labeled TBS or S-TBS peptides at indicated concentrations for 30 minutes at 37° C. The cells were then washed twice with phosphate-buffered saline (PBS), detached by adding a mixture of trypsin and […] (“trypsin-EDTA”) and harvested by spinning at 2,000 rpm for 5 minutes. The cells were resuspended in PBS and quantified with an LSR flow cytometer (525/50 filter, 488 nm laser) using 30,000 cells per measurement.

[3] = system: MCF-7 cells; assay: Cell toxicity assay, MCF-7; assay type: cell-based; settings: 40 μM, treated one hour then washed away, viability at 24 and 48 hours
Experimental: as §1

[4] = system: HEK-293 cells; assay: Cell toxicity assay, HEK-293; assay type: cell-based; settings: 40 μM, treated one hour then washed away, viability at 24 and 48 hours
Experimental: as §1

[5] = system: β3-THD (integrin β3-talin head domain fusion protein); assay: GST pull-down, β3-THD chimera; assay type: binding; settings: GST-fused peptide on glutathione beads, His-tagged talin protein, Western blot
Source text: The interaction of the TBS segment of RIAM with the talin head domain is compatible with the integrin-β:talin interaction (see, Yang et al., Nat. Commun., 2014, 5, 5880). To test this proposed synergistic interaction, a chimeric protein was constructed by fusing a integrin 03 segment to talin head domain (β3-THD) and assessed its interaction with TBS. […] The T14E mutation in TBS is expected to generate anew salt-bridge interaction with talin through the Arg358 residue, which is essential for the interaction of talin and integrin-β3 (FIG. 2, Panel D; see Barsukov et al., J. Biol. Chem., 2003, 278, 31202-09).
Plasmid construction, protein purification, and GST pull-down: Talin R7R8, talin head domain, β3-THD chimera, and GST-TBS were expressed and purified as described previously described (see, Zhang et al., Proc. Natl. Acad. Sci. U.S.A., 2020, 117, 32402-12; and Chang et al., 2014). Point mutations were constructed using a site-directed mutagenesis method. […] The proteins were resolved by SDS-PAGE and detected by Coomassie staining or Western blotting. […] The blots were visualized with the SuperSignal West Pico Chemiluminescent Substrate (Thermo Scientific) and detected using the FluorChem E imager (ProteinSimple).

[6] = system: integrin αIIbβ3; assay: Integrin activation assay, inactive talin head mutant THD-W359A; assay type: cell-based; settings: CHO-A5 cells transfected with THD-W359A; TBS 100 μM, S-TBS 10 and 100 μM; PAC1 flow cytometry
Experimental: (§2) Assessing integrin activation: CHO-A5 cells were transfected with GFP-tagged talin-head domain (residues 1-430, WT or W359A) and incubated for 24 hours at 37° C. The cells were subsequently treated with WT-TBS at 100 μM or Staple-TBS (at 10 and 100 μM) for 30 minutes at 37° C. and washed twice with PBS, harvested in trypsin-EDTA, and centrifuged at 2,000 rpm for 5 minutes. The cells were incubated in Tyrode's buffer (136.9 mM NaCl, 10 mM HEPES, 5.5 mM glucose, 11.9 mM NaHCO3, 2.7 mM KCl, 0.5 mM CaCl2), 1.5 mM MgCl2, and 0.4 mM NaH2PO4, pH 7.4) containing PAC1 antibody for 1 hour at 30° C. and then stained with Alexa 647 (goat anti-mouse IgM) for 30 minutes at RT. The cells were quantified with an LSR flow cytometer using 30,000 cells per measurement.
(§3) The effect of S-TBS on talin-induced activation of integrin αIIbβ3 was examined. CHO-A5 cells that stably express integrin αIIbβ3 were transfected with a green fluorescent protein-tagged talin head domain, treated with S-TBS or TBS, and then subjected flow cytometry analysis for integrin αIIbβ3 activity. […]
(§4) Integrin activation assays: CHO-A5 cells were transfected with talin-head domain, wild-type or W359A, and incubated for 24 hours at 37° C. […] The cells were quantified with a Beckton, Dickenson & Co. Biosciences LSR flow cytometer (660/20 filter, 640 nm laser) using 30,000 cells per measurement.

[7] = system: integrin αIIbβ3; assay: Integrin activation assay, wild-type talin head domain; assay type: cell-based; settings: CHO-A5 cells expressing GFP-tagged wild-type talin head domain; TBS 100 μM, S-TBS 10 and 100 μM, 30 minutes; PAC1 flow cytometry
Experimental: as §2, §3, §4

[8] = target: T1, Talin rod R7R8 domains (UniProt P26039 1357-1653, limits assumed); assay: fluorescence polarization; fluorophore-labelled peptide titrated with talin R7R8
T1 construct: domain: R7R8; also called talin R7R8; talin rod double-domain R7R8
T1 sequence (P26039 1357-1653 limits assumed): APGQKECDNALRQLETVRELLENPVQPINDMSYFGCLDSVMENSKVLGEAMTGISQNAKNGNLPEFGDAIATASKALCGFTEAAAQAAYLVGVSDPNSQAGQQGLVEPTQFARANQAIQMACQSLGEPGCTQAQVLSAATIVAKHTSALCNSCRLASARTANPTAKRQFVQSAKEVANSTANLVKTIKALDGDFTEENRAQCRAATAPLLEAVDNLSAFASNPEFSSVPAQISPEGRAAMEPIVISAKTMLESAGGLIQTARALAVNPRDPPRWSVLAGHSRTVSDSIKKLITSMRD
Experimental: (§5) To assess the binding affinities of S-TBS with talin, the Kd of TBS and S-TBS peptides with talin rod R7R8 and talin head (residues 1-430) were measured using fluorophore-labeled peptides and recombinantly expressed, purified talin proteins by FP assays. […] This gain of affinity may be attributed to the C8 staple as it stabilizes the helical structure of TBS, and the enhanced hydrophobic interaction between S-TBS and talin rod. The enhanced binding of S-TBS to talin further validates the design strategy of using stapled peptides as a potent competitive inhibitor.
(§6) Fluorescent Polarization: Mixtures were prepared of purified talin proteins at a series concentration (R7R8: 0.2 μM to 20 μM; THD/b3-THD: 5 μM to 100 μM), or buffer only, with 20 nM FITC-labeled S-TBS (New England Peptide) in a buffer containing 20 mM HEPES, pH 7.5, 100 mM NaCl, and 2 mM DTT. After five minutes of incubation, 20 μl of the reaction mix was added to individual wells of a 384-well assay plate (Corning) and then measured fluorescence polarization at room temperature using a plate reader. A […] as emission polarization filters. FP signals were normalized against buffer-only background and then fit to a single-site (saturating) binding model using SigmaPlot (Systat Software).

[9] = target: T2, Talin head domain (residues 1-430) (UniProt P26039 1-430); assay: fluorescence polarization; Kd of S-TBS against Kd of TBS
T2 construct: range 1-430; also called THD
T2 sequence (P26039 1-430 limits assumed): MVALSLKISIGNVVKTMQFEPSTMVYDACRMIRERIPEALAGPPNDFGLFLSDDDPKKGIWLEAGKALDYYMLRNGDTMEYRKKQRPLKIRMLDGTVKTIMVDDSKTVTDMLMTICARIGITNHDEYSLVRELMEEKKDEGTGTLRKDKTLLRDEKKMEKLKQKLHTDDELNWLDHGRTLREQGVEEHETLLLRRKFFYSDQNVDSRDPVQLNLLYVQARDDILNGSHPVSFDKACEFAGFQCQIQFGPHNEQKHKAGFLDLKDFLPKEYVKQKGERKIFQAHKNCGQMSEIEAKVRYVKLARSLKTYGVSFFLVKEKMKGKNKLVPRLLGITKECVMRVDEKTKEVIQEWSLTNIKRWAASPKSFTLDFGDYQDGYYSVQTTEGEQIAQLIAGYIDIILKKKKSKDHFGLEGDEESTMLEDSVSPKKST
Experimental: as §5, §6

[10] = target: T1, Talin rod R7R8 domains; assay: as above
Experimental: as §5, §6

[11] = target: T2, Talin head domain (residues 1-430); assay: fluorescence polarization; fluorophore-labelled peptide titrated with talin head (residues 1-430)
Experimental: as §5, §6

[12] = target: T2, Talin head domain (residues 1-430); assay: fluorescence polarization, as the legend of FIG. 9 Panel B prints it (Table 2 prints 116)
Experimental: as §5, §6

[13] = target: T2, Talin head domain (residues 1-430); assay: fluorescence polarization; fluorophore-labelled peptide, purified talin protein titrated
Experimental: as §5, §6

[14] = target: T1, Talin rod R7R8 domains; assay: as above
Experimental: as §5, §6

For `CC[C@H](C)[C@H](NC(=O)[C@H](CC(=O)O)NC(=O)[C@H](CCC(=O)O)NC(=O)[C@@H](N)CC(N)=O)C(=O)N[C@@H](CC(=O)O)C(=O)N[C@@H](CCC(N)=O)C(=O)N[C@@H](CCSC)C(=O)N[C@@H](Cc1ccccc1)C(=O)N[C@@H](CO)C(=O)N[C@H](C(=O)N[C@@H](CC(C)C)C(=O)N[C@@H](CC(C)C)C(=O)NCC(=O)N[C@@H](CCC(=O)O)C(=O)N[C@@H](CCSC)C(=O)N[C@@H](CC(=O)O)C(=O)N[C@@H](CC(C)C)C(=O)N[C@@H](CC(C)C)C(=O)N[C@H](C(=O)N[C@@H](CCC(N)=O)C(=O)N[C@@H](CO)C(=O)O)[C@@H](C)O)[C@@H](C)O` [TBS, reference compound] (H-NEDIDQMFSTLLGEMDLLTQS-OH; N-terminus and C-terminus assumed), the “cell toxicity (viability / cell growth), HeLa” value [1] was “minimal cell toxicity”, the “concentration giving significant cell uptake” value [2] was “at least 5 μM” and the “cell toxicity (viability / cell growth), MCF-7” value [3] was “minimal cell toxicity”. The “cell toxicity (viability / cell growth), HEK” value [4] was “minimal cell toxicity”, the “interaction with β3-THD (pull-down)” value [5] was “much more strongly than with THD alone” and the “integrin αIIbβ3 activity with inactive talin head THD-W359A” value [6] was “No inhibitory effect”. The “integrin αIIbβ3 activity (talin-induced activation)” value [7] was “no inhibitory effect”.

B1: S-TBS, stapled talin-binding site peptide (Stp(15,19))H2N-NEDIDQMFSTLLGE(S5)DLL(S5)QS-OH (peptide)
peptide: H-NEDIDQMFSTLLGE[S5]DLL[S5]QS-OH
modifications: staple 15-19; also: FITC label in some assays, site not given here
notes: X stands for the non-natural stapling residue (S5); also called stapled TBS; stapled-TBS
In the case of B1, the “EC50 (read off the curve)” value [8] is reported as roughly 2 µM, the “fold stronger binding than TBS” value [9] is reported as 3.5 fold and the “fold stronger binding than TBS” value [10] is reported as 6 fold. For the same molecule, the “EC50 (read off the curve)” value [11] was 10 to 20 µM.

NEDIDQMFSTLLGEMDLLTQS (also: fluorescein (6-FAM) label in some assays, also called WT-TBS; unstapled TBS) [TBS peptide (unstapled talin-binding site peptide of RIAM)] was tested, and the Kd [12] was 106 µM, the Kd [13] was 116 µM and the Kd [14] was 17.7 µM.
